In patent US9149038B2, “4-amino-6-(heterocyclic)picolinates and 6-amino-2-(heterocyclic)pyrimidine-4-carboxylates and their use as herbicides” (Dow AgroSciences LLC, priority 2013, dated 2015):
Read-outs that look alike come from different tables or passages of the source.

What was measured:
[1] = tested on: Key Grass and Sedge Weeds as well as Grass Crops; assay: Post-Emergent Test II: postemergent herbicidal activity, visual rating after 14 d (Table 8); assay type: in vivo; conditions: post-emergence, 336 h; for pest or weed control at 35 g/ha: 35 g ai/ha; for pest or weed control at 70 g/ha: 70 g ai/ha; for pest or weed control at 140 g/ha: 140 g ai/ha
Method in brief: (§1)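 Greenhouse plants at first or second true leaf stage sprayed with compound in acetone/DMSO-based spray solution with crop oil concentrate and Triton X-155 at 187 L/ha, tested at highest rate and ½× to 1/16× dilutions; solvent blank controls. Injury rated visually 0–100% versus untreated plants after 14 d.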

[2] = tested on: Key Broadleaf Weed and Crop Species; assay: Post-Emergent Test II: postemergent herbicidal activity, visual rating after 14 d (Table 7); assay type: in vivo; conditions: post-emergence, 336 h; for pest or weed control at 35 g/ha: 35 g ai/ha; for pest or weed control at 70 g/ha: 70 g ai/ha; for pest or weed control at 140 g/ha: 140 g ai/ha
Method in brief: as §1

[3] = barnyardgrass (Echinochloa crus-galli), read-out: Visual Growth Reduction (%) 14 Days After Application ECHCG
[4] = giant foxtail (Setaria faberi), read-out: Visual Growth Reduction (%) 14 Days After Application SETFA
[5] = maize, corn (Zea mays), read-out: Visual Growth Reduction (%) 14 Days After Application ZEAMX
[6] = rice (Oryza sativa), read-out: Visual Growth Reduction (%) 14 Days After Application ORYSA
[7] = wheat, spring (Triticum aestivum), read-out: Visual Growth Reduction (%) 14 Days After Application TRZAS
[8] = yellow nutsedge (Cyperus esculentus), read-out: Visual Growth Reduction (%) 14 Days After Application CYPES
[9] = lambsquarters (Chenopodium album), read-out: Visual Growth Reduction (%) 14 Days After Application CHEAL
[10] = oilseed rape, canola (Brassica napus), read-out: Visual Growth Reduction (%) 14 Days After Application BRSNN
[11] = redroot pigweed (Amaranthus retroflexus), read-out: Visual Growth Reduction (%) 14 Days After Application AMARE
[12] = sunflower (Helianthus annuus), read-out: Visual Growth Reduction (%) 14 Days After Application HELAN
[13] = velvetleaf (Abutilon theophrasti), read-out: Visual Growth Reduction (%) 14 Days After Application ABUTH
[14] = wild poinsettia (Euphorbia heterophylla), read-out: Visual Growth Reduction (%) 14 Days After Application EPHHL

| Structure (SMILES) | pest or weed control at 35 g/ha [1, 3] [%] | pest or weed control at 70 g/ha [1, 3] [%] | pest or weed control at 140 g/ha [1, 3] [%] | pest or weed control at 35 g/ha [1, 4] [%] | pest or weed control at 70 g/ha [1, 4] [%] | pest or weed control at 140 g/ha [1, 4] [%] | pest or weed control at 35 g/ha [1, 5] [%] | pest or weed control at 70 g/ha [1, 5] [%] | pest or weed control at 140 g/ha [1, 5] [%] | pest or weed control at 35 g/ha [1, 6] [%] | pest or weed control at 70 g/ha [1, 6] [%] | pest or weed control at 140 g/ha [1, 6] [%] | pest or weed control at 35 g/ha [1, 7] [%] | pest or weed control at 70 g/ha [1, 7] [%] | pest or weed control at 140 g/ha [1, 7] [%] | pest or weed control at 35 g/ha [1, 8] [%] | pest or weed control at 70 g/ha [1, 8] [%] | pest or weed control at 140 g/ha [1, 8] [%] | pest or weed control at 35 g/ha [2, 9] [%] | pest or weed control at 70 g/ha [2, 9] [%] | other results |
| --- | --- | --- | --- | --- | --- | --- | --- | --- | --- | --- | --- | --- | --- | --- | --- | --- | --- | --- | --- | --- | --- |
| Nc1c(F)c(-c2cc3c(cc2F)OC(F)(F)O3)nc(C(=O)O)c1Cl [Compound 13] | 75 to 84 | 95 to 100 | 85 to 94 | 75 to 84 | 75 to 84 | 85 to 94 | 60 to 74 | 60 to 74 | 75 to 84 | 0 to 29 | 0 to 29 | 0 to 29 | 45 to 59 | 60 to 74 | 60 to 74 | 45 to 59 | 75 to 84 | 95 to 100 | 60 to 74 | 85 to 94 | pest or weed control at 140 g/ha [2, 9]: 85 to 94%; pest or weed control at 35 g/ha [2, 10]: 0 to 29%; pest or weed control at 70 g/ha [2, 10]: 30 to 44%; pest or weed control at 140 g/ha [2, 10]: 45 to 59%; pest or weed control at 35 g/ha [2, 11]: 0 to 29%; pest or weed control at 70 g/ha [2, 11]: 0 to 29%; pest or weed control at 140 g/ha [2, 11]: 0 to 29%; pest or weed control at 35 g/ha [2, 12]: 85 to 94%; pest or weed control at 70 g/ha [2, 12]: 85 to 94%; pest or weed control at 140 g/ha [2, 12]: 85 to 94%; pest or weed control at 35 g/ha [2, 13]: 60 to 74%; pest or weed control at 70 g/ha [2, 13]: 75 to 84%; pest or weed control at 140 g/ha [2, 13]: 75 to 84%; pest or weed control at 35 g/ha [2, 14]: 45 to 59%; pest or weed control at 70 g/ha [2, 14]: 75 to 84%; pest or weed control at 140 g/ha [2, 14]: 95 to 100% |
| COc1cc(-c2nc(C(=O)O)c(Cl)c(N)c2F)cc2c1OCO2 [Compound 15] | 0 to 29 | 0 to 29 | 0 to 29 | 0 to 29 | 0 to 29 | 0 to 29 | 0 to 29 | 0 to 29 | 0 to 29 | 0 to 29 | 0 to 29 | 0 to 29 | 0 to 29 | 0 to 29 | 0 to 29 | 0 to 29 | 0 to 29 | 0 to 29 | 0 to 29 | 45 to 59 | pest or weed control at 140 g/ha [2, 9]: 75 to 84%; pest or weed control at 35 g/ha [2, 10]: 0 to 29%; pest or weed control at 70 g/ha [2, 10]: 0 to 29%; pest or weed control at 140 g/ha [2, 10]: 0 to 29%; pest or weed control at 35 g/ha [2, 11]: 0 to 29%; pest or weed control at 70 g/ha [2, 11]: 0 to 29%; pest or weed control at 140 g/ha [2, 11]: 45 to 59%; pest or weed control at 35 g/ha [2, 12]: 0 to 29%; pest or weed control at 70 g/ha [2, 12]: 0 to 29%; pest or weed control at 140 g/ha [2, 12]: 0 to 29%; pest or weed control at 35 g/ha [2, 13]: 0 to 29%; pest or weed control at 70 g/ha [2, 13]: 0 to 29%; pest or weed control at 140 g/ha [2, 13]: 0 to 29%; pest or weed control at 35 g/ha [2, 14]: 0 to 29%; pest or weed control at 70 g/ha [2, 14]: 0 to 29%; pest or weed control at 140 g/ha [2, 14]: 0 to 29% |
| COC(=O)c1nc(-c2cc3c(cc2F)OCO3)c(F)c(N)c1Cl [Compound 16] | 60 to 74 | 60 to 74 | 75 to 84 | 60 to 74 | 60 to 74 | 60 to 74 | 30 to 44 | 45 to 59 | 75 to 84 | 0 to 29 | 0 to 29 | 0 to 29 | 0 to 29 | 30 to 44 | 45 to 59 | 0 to 29 | 45 to 59 | 45 to 59 | 45 to 59 | 60 to 74 | pest or weed control at 140 g/ha [2, 9]: 60 to 74%; pest or weed control at 35 g/ha [2, 10]: 30 to 44%; pest or weed control at 70 g/ha [2, 10]: 60 to 74%; pest or weed control at 140 g/ha [2, 10]: 85 to 94%; pest or weed control at 35 g/ha [2, 11]: 85 to 94%; pest or weed control at 70 g/ha [2, 11]: 85 to 94%; pest or weed control at 140 g/ha [2, 11]: 95 to 100%; pest or weed control at 35 g/ha [2, 12]: 85 to 94%; pest or weed control at 70 g/ha [2, 12]: 95 to 100%; pest or weed control at 140 g/ha [2, 12]: 95 to 100%; pest or weed control at 35 g/ha [2, 13]: 60 to 74%; pest or weed control at 70 g/ha [2, 13]: 60 to 74%; pest or weed control at 140 g/ha [2, 13]: 75 to 84%; pest or weed control at 35 g/ha [2, 14]: 95 to 100%; pest or weed control at 70 g/ha [2, 14]: 95 to 100%; pest or weed control at 140 g/ha [2, 14]: 95 to 100% |
| Nc1c(F)c(-c2cc(F)c3c(c2)OC(F)(F)O3)nc(C(=O)O)c1Cl [Compound 18] | 45 to 59 | 60 to 74 | 60 to 74 | 45 to 59 | 45 to 59 | 60 to 74 | 0 to 29 | 30 to 44 | 60 to 74 | 0 to 29 | 0 to 29 | 0 to 29 | 0 to 29 | 45 to 59 | 45 to 59 | 0 to 29 | 0 to 29 | 0 to 29 | 0 to 29 | 0 to 29 | pest or weed control at 140 g/ha [2, 9]: 0 to 29%; pest or weed control at 35 g/ha [2, 10]: 0 to 29%; pest or weed control at 70 g/ha [2, 10]: 0 to 29%; pest or weed control at 140 g/ha [2, 10]: 0 to 29%; pest or weed control at 35 g/ha [2, 11]: 0 to 29%; pest or weed control at 70 g/ha [2, 11]: 0 to 29%; pest or weed control at 140 g/ha [2, 11]: 0 to 29%; pest or weed control at 35 g/ha [2, 12]: 0 to 29%; pest or weed control at 70 g/ha [2, 12]: 0 to 29%; pest or weed control at 140 g/ha [2, 12]: 45 to 59%; pest or weed control at 35 g/ha [2, 13]: 0 to 29%; pest or weed control at 70 g/ha [2, 13]: 0 to 29%; pest or weed control at 140 g/ha [2, 13]: 0 to 29%; pest or weed control at 35 g/ha [2, 14]: 0 to 29%; pest or weed control at 70 g/ha [2, 14]: 0 to 29%; pest or weed control at 140 g/ha [2, 14]: 0 to 29% |
